Results on 1 compound are retold here after US20230101768A1, “METHOD TO TREAT MANGANESE TOXICITY AND MANGANESE-INDUCED PA[…] HUMANS” (priority 2021, published 2023).

For one data set, the system named is DMT1. Particulars: HepG2 cells, 250 μM manganese for 4 h; expression without manganese normalized to 1; mean±SE, N=4. On the procedure: (§1) Cells were treated with 0 or 250 μM manganese for 4 h, and gene expression was analyzed by qRT-PCR. For each transcript, expression without manganese treatment was normalized to 1. N=4. Data are mean±SE.
(§2) Cell culture. HepG2 cells were grown in Eagle's modified essential medium (MEM; Corning) with 10% fetal bovine serum (Atlanta Biologicals), 100 IU/ml penicillin (Corning), and 100 μg/ml streptomycin (Corning). 293T cells were maintained in Dulbecco's modified essential medium/F12 (Thermo) supplemented with 10% fetal bovine serum, penicillin (100 IU/ml), and streptomycin (100 μg/ml). Human primary hepatocytes were purchased from XenoTech (catalog #HPCH10+) and cultured according to protocols provided by the supplier.
(§3) manganese and drug treatments in cell culture. Cells were treated with indicated levels of manganese as manganeseCl2.4H2O (Fisher). Vehicle for manganese treatment was water. Prolyl hydroxylase inhibitors roxadustat (Caymen), vadadustat, and molidustat (both APE-Bio); the HIFα inhibitor LW6 (Selleckchem); the proteasomal inhibitor MG132 (Sigma); and the transcription inhibitor actinomycin D (Sigma) were dissolved in DMSO. […] Vehicle treatment for all drugs was DMSO.
(§4) Quantitative RT-PCR assays. RNA extraction from HepG2 cells and mouse tissue, reverse transcription to cDNA, and qRT-PCR analyses were performed as described by us previously (47, 50). For analyses of mouse brain samples, a part of the midbrain, including the basal ganglia, was used. Transcript levels were quantified using the ΔΔCT method with 18S (in mice) or TBP (in HepG2 cells) as the internal control, also as described by us previously (47, 50).

A further data set concerns FPN. The settings on record: HepG2 cells, 250 μM manganese for 4 h; expression without manganese normalized to 1; mean±SE, N=4. Here is the method:
as §1, §2, §3, §4

In the next data set the test system is SLC39A14. The settings on record: HepG2 cells, 250 μM manganese for 4 h; expression without manganese normalized to 1; mean±SE, N=4. On the procedure:
as §1, §2, §3, §4

Another data set deals with SLC39A8. The settings on record: HepG2 cells, 250 μM manganese for 4 h; expression without manganese normalized to 1; mean±SE, N=4. Here is the method:
as §1, §2, §3, §4

A further data set relates to SPCA1. The settings on record: HepG2 cells, 250 μM manganese for 4 h; expression without manganese normalized to 1; mean±SE, N=4. On the procedure: as §1, §2, §3, §4
The next data set concerns HIF1α. In kind it is cell-based, human. Particulars: HepG2 cells, 250 μM manganese; evident at 4 hours, baseline by 24 h. On the procedure: as §3
(§5) Immunoblots. HepG2 cells were cultured in 35 mm dishes, treated with or without manganese, MG132 and/or prolyl hydroxylase inhibitors, and scrapped using 200 μl of RIPA buffer (50 mM Tris-HCl, pH7.4; 150 mM NaCl; 1Mm EDTA; 1% Triton; 0.25% sodium deoxycholate; protease inhibitors cocktail (Thermo A32953)). Whole-cell lysates were prepared by adding loading buffer (50 mM Tris-HCl, pH 7.4; 2% sodium dodecyl sulfate; 10% glycerol, 0.1 M dithiothreitol; 0.01% (weight/volume) bromophenol blue) and boiling the samples for 5 min. Equal volumes of samples were loaded per lane. Further processing was as described by us previously (47). Images were quantified using ImageQuant TL software (GE).
(§6) Antibodies and chemicals. The inventors used the following commercial primary antibodies in this study: rabbit polyclonal anti-HIF1α (Abcam, Ab2185), rabbit polyclonal anti-HIF2α (Novus, NB100-122), rabbit monoclonal anti-HIF1α proline 564 (Cell signaling, 3434S), and mouse monoclonal anti-tubulin (Sigma, T5168). […] Sources of chemicals not provided elsewhere were Thermo Fisher Scientific or Sigma-Aldrich.

In a further data set the test system is HIF2α. In kind it is cell-based, human. The settings on record: HepG2 cells, 250 μM manganese; evident at 4 hours, baseline by 24 h. On the procedure:
as §3, §5, §6

Data set [1] deals with prolyl hydroxylated HIF1α. In kind it is cell-based, human. Particulars: HepG2 cells, 10 μM MG132 for 1 h then 250 μM manganese for 4 h. On the procedure:
as §3, §5, §6

For the next data set, the system named is SLC30A10. In kind it is cell-based. The settings on record: primary human hepatocytes, 250 μM manganese for 4 h. Here is the method:
(§7) (A) and (B): qRT-PCR assays in cells treated with or without 10 μM LW6 for 1 h followed by 0 or 250 μM manganese for 4 h (A) or with or without 20 μM roxadustat or 80 μM vadadustat for 16 h (B). […] For (B), expression in the absence of drug treatment was normalized to 1. N=3. Mean±SE. *P<0.05 by t-test (A) or one-way ANOVA and Dunnett's post hoc test for the comparison between no drug and other conditions (B).
as §2, §3, §4

The subject of a further data set is VEGF. In kind it is cell-based. Particulars: primary human hepatocytes, 250 μM manganese for 4 h. Here is the method:
as §7, §2, §3, §4

Another data set concerns C57BL/6J mice. The settings on record: ~30 mg manganese/kg daily in drinking water, 4 weeks. Here is the method:
To assay for the protective effect of roxadustat, animals were exposed to roxadustat or vehicle with or without manganese in drinking water from ˜4 weeks of age. Treatment lasted for 4 weeks from initiation. Roxadustat (Selleckchem) was prepared as a 50 mg/ml stock solution in DMSO, then diluted to 1 mg/ml in sterile phosphate buffered saline (PBS), and delivered by daily i.p. injection at 10 mg/kg. Vehicle was 2% DMSO in PBS. For this experiment, drinking water manganese levels were adjusted to 0.138 mg absolute manganese/ml so that animals received ˜30 mg absolute manganese/kg daily. A higher level of manganese was used because exposure was initiated after weaning, which was necessary because daily i.p. injections for roxadustat delivery were not possible in the pre-weaning period.
Animals were euthanized using carbon dioxide and tissue dissected for qRT-PCR or ICPMS analyses as described by us previously (50).
Inductively coupled plasma mass spectrometry. Metal measurements using ICP-MS were performed exactly as described by us previously (47, 50, 51, 99).

Regarding `O.O.O.O.[Cl][Mn][Cl]` [manganese, manganeseCl2.4H2O], the “Relative expression after manganese, DMT1 transcript” value with DMT1 was 0.92 ± 0.03. Besides, the “Relative expression after manganese, FPN transcript” value in the data set with FPN stood at 0.77 ± 0.21. The “Relative expression after manganese, SLC39A14 transcript” value in the data set with SLC39A14 worked out at 0.71 ± 0.02. For the same compound, the “Relative expression after manganese, SLC39A8 transcript” value with SLC39A8 is on record as 0.87 ± 0.09. In the data set with SPCA1, the “Relative expression after manganese, SPCA1 transcript” value turned out to be 1.00 ± 0.05. For the same compound, in the data set on HIF1α, the “HIF1α protein levels after manganese” value is listed as “increased”. In the data set with HIF2α, the “HIF2α protein levels after manganese” value was “increased”. The “Signals for prolyl hydroxylated HIF1α in manganese-treated condition” value in data set [1] is reported as “substantially lower”. For the same compound, in the data set with SLC30A10, the “SLC30A10 expression after manganese” value was “increased”. The “VEGF expression after manganese” value in the data set with VEGF is on record as “increased”. In the data set on C57BL/6J mice, the “Blood manganese after manganese treatment” value is on record as “trend towards an increase” and the “Brain manganese levels, main effect of manganese treatment” value is listed as “increasing”.
